Data published in US20180320217A1, “METHODS FOR SAMPLING AND MEASURING ORAL LAVAGE PROTEINS” (The Procter & Gamble Company, priority 2017, published 2018).
Several values for one entry are separate records, joined by “and”; a condition that tells them apart may be missing. Equal entries are not always repeated. Entries after “also recorded” stand apart in the source; their conditions may differ.

Columns and labels:
diaphorase [1] = assay: Formation of formazan dyes: NADH and diaphorase, absence of malate (TABLE 7); assay type: biochemical, Clostridium kluyveri; conditions: NADH and diaphorase, absence of malate
diaphorase [2] = assay: Formation of formazan dyes: NADH, diaphorase and malate (TABLE 8); assay type: biochemical, Clostridium kluyveri; conditions: NADH, diaphorase and malate
[3] = test system: Malate dehydrogenase and diaphorase; assay: Formation of formazan dyes: Malate dehydrogenase and diaphorase, absence of malate (TABLE 9); assay type: biochemical, pig heart
[4] = test system: Malate dehydrogenase and diaphorase; assay: Formation of formazan dyes: Malate dehydrogenase, diaphorase and malate (TABLE 10); assay type: biochemical, pig heart
oral lavage [5] = assay: Formation of formazan dyes: oral lavage and diaphorase, not malate (TABLE 11); assay type: biochemical, human
oral lavage [6] = assay: Formation of formazan dyes: oral lavage, malate and diaphorase (TABLE 12); assay type: biochemical, human; conditions: oral lavage, malate and diaphorase
diaphorase [7] = assay: Formation of formazan dyes: only diaphorase, not malate (TABLE 13); assay type: biochemical, Clostridium kluyveri; conditions: mean of three experiments
diaphorase [8] = assay: Formation of formazan dyes: only diaphorase and malate (TABLE 14); assay type: biochemical, Clostridium kluyveri; conditions: mean of three experiments
[9] = Formation of formazan dyes: NADH and 1-methoxy PMS, absence of malate (TABLE 15); assay type: biochemical; conditions: disodium salt
[10] = Formation of formazan dyes: NADH, malate and 1-methoxy PMS (TABLE 16); assay type: biochemical
oral lavage [11] = assay: Formation of formazan dyes: oral lavage and 1-Methoxy PMS, absence of malate (TABLE 19); assay type: biochemical, human; conditions: disodium salt
[12] = Formation of formazan dyes: control buffer and 1-Methoxy PMS, absence of malate (TABLE 21); assay type: biochemical; conditions: disodium salt
[13] = Formation of formazan dyes: control buffer, malate and 1-Methoxy PMS (TABLE 22); assay type: biochemical
diaphorase [14] = assay: Effect of concentrations of tetrazolium salts on formation of formazan dyes (FIGS. 4A-4G); assay type: biochemical; conditions: 15 mM NADH+H, 20 μg diaphorase, pH 7.5; FIGS. 4A to 4G
Procedure: On the idea that higher concentrations of tetrazolium salts in the assay buffer would likely result in more formazan dyes in the reaction, various concentrations of tetrazolium salts were added to a reaction buffer and the formation of formazan dyes were measured at 0, 30 and 60 minutes. […] The reactions were performed at room temperature. Absorbance was taken at 0, 30 and 60 minutes.

Malate dehydrogenase = target: T1, Malate dehydrogenase (Sus scrofa, UniProt P00346); assay: Formation of formazan dyes: Malate dehydrogenase and 1-Methoxy PMS, absence of malate (TABLE 17); assay type: biochemical, pig heart; design: L-malate dehydrogenase (pig heart); purchased Sigma-Aldrich 10127248001 / 10127914001
T1 sequence (P00346 25-338): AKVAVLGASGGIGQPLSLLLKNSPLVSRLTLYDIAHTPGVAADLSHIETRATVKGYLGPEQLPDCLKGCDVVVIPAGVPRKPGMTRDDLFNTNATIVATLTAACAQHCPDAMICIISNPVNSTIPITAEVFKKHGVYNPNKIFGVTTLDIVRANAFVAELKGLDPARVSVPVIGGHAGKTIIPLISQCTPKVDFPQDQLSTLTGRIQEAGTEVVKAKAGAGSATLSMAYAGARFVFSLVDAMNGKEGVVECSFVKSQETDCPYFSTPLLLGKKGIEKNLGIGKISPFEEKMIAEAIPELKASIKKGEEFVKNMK

COc1cc(-c2ccc(-[n+]3nc(-c4ccc(C(=O)N(CCS(=O)(=O)[O-])CCS(=O)(=O)[O-])cc4)nn3-c3nc4ccccc4s3)c(OC)c2)ccc1-[n+]1nc(-c2ccc(C(=O)N(CCS(=O)(=O)[O-])CCS(=O)(=O)[O-])cc2)nn1-c1nc2ccccc2s1.[Na+].[Na+] [WST-5, 2,2′-Dibenzothiazolyl-5,5′-bis[4-di(2-sulfoethyl)carbamoylphenyl]-3,3′-(3,3′-dimethoxy 4,4′-biphenylene)ditetrazolium, disodium salt]
Formation of formazan dyes, absorbance, Means 0 h (diaphorase [1]; 0 h): 2.81
Formation of formazan dyes, absorbance, Means 1 h (diaphorase [1]; 1 h): 2.81
Formation of formazan dyes, absorbance, Means 2 h (diaphorase [1]; 2 h): 2.79
Formation of formazan dyes, absorbance, Means 3 h (diaphorase [1]; 3 h): 2.78
Formation of formazan dyes, absorbance, Means 4 h (diaphorase [1]; 4 h): 2.86
Formation of formazan dyes, absorbance, Means 6 h (diaphorase [1]; 6 h): 2.83
Formation of formazan dyes, absorbance, Means 8 h (diaphorase [1]; 8 h): 2.77
Formation of formazan dyes, absorbance, Means 10 h (diaphorase [1]; 10 h): 2.74
Formation of formazan dyes, absorbance, Means 12 h (diaphorase [1]; 12 h): 2.66
Formation of formazan dyes, absorbance, Means 0 h (diaphorase [2]; 0 h): 2.62
Formation of formazan dyes, absorbance, Means 1 h (diaphorase [2]; 1 h): 2.48
Formation of formazan dyes, absorbance, Means 2 h (diaphorase [2]; 2 h): 2.44
Formation of formazan dyes, absorbance, Means 3 h (diaphorase [2]; 3 h): 2.41
Formation of formazan dyes, absorbance, Means 4 h (diaphorase [2]; 4 h): 2.45
Formation of formazan dyes, absorbance, Means 6 h (diaphorase [2]; 6 h): 2.41
Formation of formazan dyes, absorbance, Means 8 h (diaphorase [2]; 8 h): 2.36
Formation of formazan dyes, absorbance, Means 10 h (diaphorase [2]; 10 h): 2.31
Formation of formazan dyes, absorbance, Means 12 h (diaphorase [2]; 12 h): 2.26
Formation of formazan dyes, absorbance, Means 0 h ([3]; Malate dehydrogenase and diaphorase, absence of malate, 0 h): 0.83
Formation of formazan dyes, absorbance, Means 1 h ([3]; Malate dehydrogenase and diaphorase, absence of malate, 1 h): 1.35
Formation of formazan dyes, absorbance, Means 2 h ([3]; Malate dehydrogenase and diaphorase, absence of malate, 2 h): 1.58
Formation of formazan dyes, absorbance, Means 3 h ([3]; Malate dehydrogenase and diaphorase, absence of malate, 3 h): 1.74
Formation of formazan dyes, absorbance, Means 4 h ([3]; Malate dehydrogenase and diaphorase, absence of malate, 4 h): 1.86
Formation of formazan dyes, absorbance, Means 6 h ([3]; Malate dehydrogenase and diaphorase, absence of malate, 6 h): 2.06
Formation of formazan dyes, absorbance, Means 8 h ([3]; Malate dehydrogenase and diaphorase, absence of malate, 8 h): 2.24
Formation of formazan dyes, absorbance, Means 10 h ([3]; Malate dehydrogenase and diaphorase, absence of malate, 10 h): 2.33
Formation of formazan dyes, absorbance, Means 12 h ([3]; Malate dehydrogenase and diaphorase, absence of malate, 12 h): 2.33
reduction of tetrazolium dye in the absence of substrate malate ([3]; malate dehydrogenase and diaphorase (TABLE 9)): partially reduced
Formation of formazan dyes, absorbance, Means 0 h ([4]; Malate dehydrogenase, diaphorase and malate, 0 h): 0.75
Formation of formazan dyes, absorbance, Means 1 h ([4]; Malate dehydrogenase, diaphorase and malate, 1 h): 1.32
Formation of formazan dyes, absorbance, Means 2 h ([4]; Malate dehydrogenase, diaphorase and malate, 2 h): 1.67
Formation of formazan dyes, absorbance, Means 3 h ([4]; Malate dehydrogenase, diaphorase and malate, 3 h): 1.93
Formation of formazan dyes, absorbance, Means 4 h ([4]; Malate dehydrogenase, diaphorase and malate, 4 h): 2.04
Formation of formazan dyes, absorbance, Means 6 h ([4]; Malate dehydrogenase, diaphorase and malate, 6 h): 2.20
Formation of formazan dyes, absorbance, Means 8 h ([4]; Malate dehydrogenase, diaphorase and malate, 8 h): 2.34
Formation of formazan dyes, absorbance, Means 10 h ([4]; Malate dehydrogenase, diaphorase and malate, 10 h): 2.49
Formation of formazan dyes, absorbance, Means 12 h ([4]; Malate dehydrogenase, diaphorase and malate, 12 h): 2.60
conversion to reduced formazan dyes ([4]; malate dehydrogenase, diaphorase and malate (TABLE 10), disodium salt): converted to reduced formazan dyes in a time-dependent fashion; also recorded: able to catalyze the reduction
Formation of formazan dyes, absorbance, Means 0 h (oral lavage [5]; oral lavage and diaphorase, not malate, 0 h): 0.60
Formation of formazan dyes, absorbance, Means 1 h (oral lavage [5]; oral lavage and diaphorase, not malate, 1 h): 0.72
Formation of formazan dyes, absorbance, Means 2 h (oral lavage [5]; oral lavage and diaphorase, not malate, 2 h): 0.77
Formation of formazan dyes, absorbance, Means 3 h (oral lavage [5]; oral lavage and diaphorase, not malate, 3 h): 0.80
Formation of formazan dyes, absorbance, Means 4 h (oral lavage [5]; oral lavage and diaphorase, not malate, 4 h): 0.78
Formation of formazan dyes, absorbance, Means 6 h (oral lavage [5]; oral lavage and diaphorase, not malate, 6 h): 0.83
Formation of formazan dyes, absorbance, Means 8 h (oral lavage [5]; oral lavage and diaphorase, not malate, 8 h): 0.84
Formation of formazan dyes, absorbance, Means 10 h (oral lavage [5]; oral lavage and diaphorase, not malate, 10 h): 0.81
Formation of formazan dyes, absorbance, Means 12 h (oral lavage [5]; oral lavage and diaphorase, not malate, 12 h): 0.80
reduction to formazan dyes by pooled oral lavage (oral lavage [5]; pooled oral lavage of high bleeder group, diaphorase, no added malate (TABLE 11)): partially reduced to formazan dyes
Formation of formazan dyes, absorbance, Means 0 h (oral lavage [6]; 0 h): 0.57
Formation of formazan dyes, absorbance, Means 1 h (oral lavage [6]; 1 h): 0.74
Formation of formazan dyes, absorbance, Means 2 h (oral lavage [6]; 2 h): 0.80
Formation of formazan dyes, absorbance, Means 3 h (oral lavage [6]; 3 h): 0.75
Formation of formazan dyes, absorbance, Means 4 h (oral lavage [6]; 4 h): 0.67
Formation of formazan dyes, absorbance, Means 6 h (oral lavage [6]; 6 h): 0.85
Formation of formazan dyes, absorbance, Means 8 h (oral lavage [6]; 8 h): 0.90
Formation of formazan dyes, absorbance, Means 10 h (oral lavage [6]; 10 h): 1.02
Formation of formazan dyes, absorbance, Means 12 h (oral lavage [6]; 12 h): 1.08
Absorbance, formation of formazan dyes (Means) (diaphorase [7]; 0 h): 0.25
Absorbance, formation of formazan dyes (Means) (diaphorase [7]; 1 h): 0.30
Absorbance, formation of formazan dyes (Means) (diaphorase [7]; 2 h): 0.35
Absorbance, formation of formazan dyes (Means) (diaphorase [7]; 3 h): 0.32
Absorbance, formation of formazan dyes (Means) (diaphorase [7]; 4 h): 0.32
Absorbance, formation of formazan dyes (Means) (diaphorase [7]; 6 h): 0.38
Absorbance, formation of formazan dyes (Means) (diaphorase [7]; 8 h): 0.41
Absorbance, formation of formazan dyes (Means) (diaphorase [7]; 10 h): 0.38
Absorbance, formation of formazan dyes (Means) (diaphorase [7]; 12 h): 0.36
Absorbance, formation of formazan dyes (Means) (diaphorase [8]; 0 h): 0.09
Absorbance, formation of formazan dyes (Means) (diaphorase [8]; 1 h): 0.12
Absorbance, formation of formazan dyes (Means) (diaphorase [8]; 2 h): 0.15
Absorbance, formation of formazan dyes (Means) (diaphorase [8]; 3 h): 0.18
Absorbance, formation of formazan dyes (Means) (diaphorase [8]; 4 h): 0.21
Absorbance, formation of formazan dyes (Means) (diaphorase [8]; 6 h): 0.23
Absorbance, formation of formazan dyes (Means) (diaphorase [8]; 8 h): 0.26
Absorbance, formation of formazan dyes (Means) (diaphorase [8]; 10 h): 0.29
Absorbance, formation of formazan dyes (Means) (diaphorase [8]; 12 h): 0.32
Absorbance, formation of formazan dyes (Means) [9]: 2.12 and 2.14 and 2.18 and 2.22
Absorbance, formation of formazan dyes (Means) [10]: 1.84
Absorbance, formation of formazan dyes (Means) (oral lavage [11]): 0.77 and 1.11 and 1.29 and 1.39
Absorbance, formation of formazan dyes (Means) [12]: 0.33 and 0.45 and 0.48 and 0.55
Means absorbance 0 h [13]: 0.13
Means absorbance 1 h [13]: 0.15
Means absorbance 2 h [13]: 0.16
Means absorbance 3 h [13]: 0.16
concentration of tetrazolium salt at which absorbance reached peaks (diaphorase [14]): 1 mM
reduction by malate dehydrogenase alone (Malate dehydrogenase): did not catalyze the reduction
Absorbance, formation of formazan dyes (Means) (Malate dehydrogenase; disodium salt): 0.24 and 0.37 and 0.41 and 0.43
